In ChEMBL document CHEMBL1201862, “PubChem BioAssay data set” (2004):
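Each compound was tested at five concentrations against cells in 96-well plates for 48 hours. GI50 marks 50% less growth.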 The source made the active and inactive calls. No stated cut-off is given here; in the data, active = GI50 up to about 1.1 µM and inactive = higher.

Tests used:
Test in all cases: NCI tumour cell line growth inhibition, 48 h
[1] = test system: A498
[2] = test system: CCRF-CEM
[3] = test system: COLO 205
[4] = test system: HT-29
[5] = test system: IGROV-1
[6] = test system: KM12
[7] = test system: LOX IMVI
[8] = test system: M14
[9] = test system: Malme-3M
[10] = test system: NCI-H522
[11] = test system: OVCAR-5
[12] = test system: SF-268
[13] = test system: SF-295
[14] = test system: SK-MEL-2
[15] = test system: SK-OV-3
[16] = test system: SNB-19
[17] = test system: SR
[18] = test system: UACC-257

Measured: GI50

COc1cc(/C=C2/C(=O)N(C(=O)OCC(C)C)C(Cc3cc(OC)c(OC)c(C)c3OC)C(=O)N2Cc2ccccc2)c(OC)c(C)c1OC (configuration not stated)
inactive: [1] > 100 µM | [2] 21.3 µM | [3] 11.2 µM | [4] > 100 µM | [5] > 100 µM | [6] > 100 µM | [7] > 100 µM | [8] 69.3 µM | [9] > 100 µM | [10] 5.26 µM | [11] > 100 µM | [12] > 100 µM | [13] 62.7 µM | [14] 94.6 µM | [15] > 100 µM | [16] > 100 µM | [17] 25.1 µM | [18] 15.9 µM

Cc1ccccc1NC(=O)C(=O)Cc1nc2ccccc2s1
inactive: [1] > 100 µM | [2] > 100 µM | [3] > 100 µM | [4] > 100 µM | [5] > 100 µM | [6] > 100 µM | [7] > 100 µM | [8] > 100 µM | [9] > 100 µM | [10] > 100 µM | [11] > 100 µM | [12] > 100 µM | [13] > 100 µM | [14] > 100 µM | [15] > 100 µM | [16] > 100 µM | [17] > 100 µM | [18] > 100 µM

CCC1CCCCN1CC(C(C)=O)C(c1ccccc1)c1c(O)c2ccccc2oc1=O (configuration not stated)
inactive: [1] > 100 µM | [2] > 100 µM | [3] 76.6 µM | [4] > 100 µM | [5] > 100 µM | [6] > 100 µM | [7] > 100 µM | [8] > 100 µM | [9] > 100 µM | [10] > 100 µM | [11] 50.7 µM | [12] > 100 µM | [13] > 100 µM | [14] > 100 µM | [15] > 100 µM | [16] > 100 µM | [17] 80.7 µM | [18] > 100 µM

O=C(CC(=O)c1cccc2ccccc12)C(=O)Nc1nccs1
inactive: [1] > 100 µM | [2] > 100 µM | [3] > 100 µM | [4] > 100 µM | [5] > 100 µM | [6] > 100 µM | [7] > 100 µM | [8] > 100 µM | [9] > 100 µM | [10] > 100 µM | [11] > 100 µM | [12] > 100 µM | [13] > 100 µM | [14] > 100 µM | [15] > 100 µM | [17] > 100 µM | [18] > 100 µM

Cc1[nH]c2ccccc2c1C1Cc2ccccc2N1C(=O)/C(Cl)=C/c1ccccc1 (configuration not stated)
inactive: [1] > 78.2 µM | [2] > 73.1 µM | [3] > 100 µM | [4] > 100 µM | [5] 61.1 µM | [6] > 100 µM | [7] > 100 µM | [8] > 100 µM | [9] > 86.3 µM | [10] > 100 µM | [11] > 100 µM | [12] > 78.9 µM | [13] > 31 µM | [14] > 91 µM | [15] > 100 µM | [16] > 100 µM | [17] 29.2 µM | [18] > 100 µM

Cc1cc(N(CCC#N)S(=O)(=O)c2ccccc2)ccc1C=O
inactive: [1] > 100 µM | [2] > 100 µM | [3] > 100 µM | [4] > 100 µM | [5] > 100 µM | [6] > 100 µM | [7] > 100 µM | [8] > 100 µM | [9] > 100 µM | [10] > 100 µM | [11] > 100 µM | [12] > 100 µM | [13] > 100 µM | [14] > 100 µM | [15] > 100 µM | [16] > 100 µM | [17] > 100 µM | [18] > 100 µM
